From patent US7138361B2, “Herbicidal heterocycles” (E. I. du Pont de Nemours and Company, priority 2000, dated 2006)

Legend:
Type in all cases: in vivo
[1] = test system: pigweed (Amaranthus retroflexus); test: Test C preemergence; conditions: for Plant response rating (0 to 100), Pigweed: visual evaluation after 12 to 14 days
Procedure, shortened: (§1)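 Seeds are planted and treated before emergence; for the postemergence test, plants at 1- to 4-leaf stage (2–18 cm) receive the same formulation, a solvent blend containing surfactant. Plants stay in the greenhouse 12–14 days, then response is scored visually from 0 (none) to 100 (complete control).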

[2] = test system: goosegrass (Eleusine indica); test: Test C preemergence; conditions: for Plant response rating (0 to 100), Goosegrass: visual evaluation after 12 to 14 days
Procedure, shortened: as §1

[3] = test system: woolly cupgrass (Eriochloa villosa); test: Test C preemergence; conditions: for Plant response rating (0 to 100), Cupgrass, Woolly: visual evaluation after 12 to 14 days
Procedure, shortened: as §1

[4] = test system: common ragweed (Ambrosia elatior); test: Test C preemergence; conditions: for Plant response rating (0 to 100), Ragweed, Common: visual evaluation after 12 to 14 days
Procedure, shortened: as §1

[5] = test system: lambsquarters (Chenopodium album); test: Test C preemergence; conditions: for Plant response rating (0 to 100), Lambsquarters: visual evaluation after 12 to 14 days
Procedure, shortened: as §1

[6] = test system: Surinam grass (Brachiaria decumbens); test: Test C preemergence; conditions: for Plant response rating (0 to 100), Surinam grass: visual evaluation after 12 to 14 days
Procedure, shortened: as §1

[7] = test system: cocklebur (Xanthium strumarium); test: Test C preemergence; conditions: for Plant response rating (0 to 100), Cocklebur: visual evaluation after 12 to 14 days
Procedure, shortened: as §1

[8] = test system: Nightshade; test: Test C preemergence
[9] = test system: crabgrass (Digitaria sanguinalis); test: Test C preemergence; conditions: for Plant response rating (0 to 100), Crabgrass: visual evaluation after 12 to 14 days
Procedure, shortened: as §1

[10] = test system: soybean (Glycine max); test: Test C preemergence; conditions: for Plant response rating (0 to 100), Soybean: visual evaluation after 12 to 14 days
Procedure, shortened: as §1

[11] = test system: velvetleaf (Abutilon theophrasti); test: Test B preemergence
Procedure, shortened: (§2)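 Visual injury scores, 0 = no effect to 100 = complete control, assigned against controls after 13 to 15 days in the greenhouse. Compounds formulated in non-phytotoxic solvent plus surfactant and applied to soil after planting (pre) or onto foliage of 1- to 4-leaf plants (post).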

[12] = test system: pigweed (Amaranthus retroflexus); test: Test B preemergence
Procedure, shortened: as §2

[13] = test system: corn (Zea mays); test: Test B preemergence
Procedure, shortened: as §2

[14] = test system: barnyardgrass (Echinochloa crus-galli); test: Test B preemergence
Procedure, shortened: as §2

[15] = test system: lambsquarters (Chenopodium album); test: Test B preemergence
Procedure, shortened: as §2

[16] = test system: Surinam grass (Brachiaria decumbens); test: Test B preemergence
Procedure, shortened: as §2

[17] = test system: giant foxtail (Setaria faberii); test: Test B preemergence
Procedure, shortened: as §2

[18] = test system: morning glory (Ipomoea hederacea); test: Test B preemergence
Procedure, shortened: as §2

[19] = test system: cocklebur (Xanthium strumarium); test: Test B preemergence
Procedure, shortened: as §2

[20] = test system: rice (Oryza saliva); test: Test B preemergence
Procedure, shortened: as §2

[21] = test system: crabgrass (Digitaria sanguinalis); test: Test B preemergence
Procedure, shortened: as §2

[22] = Rate 62 g/ha, scale 0 to 100, 0 no effect, 100 complete control
[23] = preemergence, Rate 31 g/ha, scale 0 to 100
[24] = preemergence, Rate 125 g/ha, scale 0 to 100, 0 no effect, 100 complete control
[25] = Rate 125 g/ha, scale 0 to 100, 0 no effect, 100 complete control
[26] = Preemergence, Rate 500 g/ha, scale 0 to 100, 0 no effect, 100 complete control
[27] = preemergence, Rate 62 g/ha, scale 0 to 100
[28] = preemergence, Rate 250 g/ha, scale 0 to 100, 0 no effect, 100 complete control
[29] = preemergence, Rate 125 g/ha, scale of 0 to 100 where 0 is no effect and 100 is complete control, 13 to 15 days

Compound: CC(C)(C)c1ccn(C2CCN(c3ccc(Cl)c(Cl)c3)C2=O)n1 (stereo not drawn) [Compound 34]
- Plant response rating, Pigweed [1, 22]: 100
- Plant response rating, Pigweed [1, 23]: 0
- Plant response rating (0 to 100), Pigweed ([1]; preemergence, Rate 250 g/ha): 40
- Plant response rating, Pigweed [1, 24]: 100
- Plant response rating, Goosegrass [2, 22]: 80
- Plant response rating, Goosegrass [2, 23]: 20
- Plant response rating (0 to 100), Goosegrass ([2]; preemergence, Rate 250 g/ha): 100
- Plant response rating, Goosegrass [2, 24]: 80
- Plant response rating, Cupgrass, Woolly [3, 22]: 20
- Plant response rating, Cupgrass, Woolly [3, 23]: 0
- Plant response rating (0 to 100), Cupgrass, Woolly ([3]; preemergence, Rate 250 g/ha): 80
- Plant response rating, Cupgrass, Woolly [3, 24]: 20
- Plant response rating, Ragweed, Common [4, 22]: 0
- Plant response rating, Ragweed, Common [4, 23]: 0
- Plant response rating (0 to 100), Ragweed, Common ([4]; preemergence, Rate 250 g/ha): 0
- Plant response rating, Ragweed, Common [4, 24]: 0
- Plant response rating, Lambsquarters [5, 22]: 90
- Plant response rating, Lambsquarters [5, 23]: 90
- Plant response rating (0 to 100), Lambsquarters ([5]; preemergence, Rate 250 g/ha): 100
- Plant response rating, Lambsquarters [5, 24]: 100
- Plant response rating, Surinam grass [6, 22]: 0
- Plant response rating, Surinam grass [6, 23]: 0
- Plant response rating (0 to 100), Surinam grass ([6]; preemergence, Rate 250 g/ha): 0
- Plant response rating, Surinam grass [6, 24]: 0
- Plant response rating, Cocklebur [7, 22]: 0
- Plant response rating, Cocklebur [7, 23]: 0
- Plant response rating (0 to 100), Cocklebur ([7]; preemergence, Rate 250 g/ha): 0
- Plant response rating, Cocklebur [7, 24]: 0
- Plant response rating, Nightshade ([8]; Rate 31 g/ha, scale 0 to 100): 0
- Plant response rating, Nightshade ([8]; Rate 62 g/ha; scale 0 to 100, 0 no effect, 100 complete control): 0
- Plant response rating, Nightshade [8, 25]: 0
- Plant response rating, Crabgrass [9, 22]: 60
- Plant response rating, Crabgrass [9, 23]: 0
- Plant response rating (0 to 100), Crabgrass ([9]; preemergence, Rate 250 g/ha): 100
- Plant response rating, Crabgrass [9, 24]: 70
- Plant response rating, Soybean [10, 22]: 0
- Plant response rating, Soybean [10, 23]: 0
- Plant response rating (0 to 100), Soybean ([10]; preemergence, Rate 250 g/ha): 0
- Plant response rating, Soybean [10, 24]: 0
- Plant response rating, Velvetleaf [11, 26]: 100
- Plant response rating, Pigweed [12, 26]: 100
- Plant response rating, Corn [13, 26]: 0
- Plant response rating, Corn [13, 24]: 0
- Plant response rating, Barnyardgrass [14, 26]: 60
- Plant response rating, Barnyardgrass [14, 24]: 0
- Plant response rating, Lambsquarters [15, 26]: 100
- Plant response rating, Lambsquarters [15, 24]: 20
- Plant response rating, Surinam grass [16, 26]: 20
- Plant response rating, Surinam grass [16, 24]: 0
- Plant response rating, Foxtail, Giant [17, 26]: 70
- Plant response rating, Foxtail, Giant [17, 24]: 0
- Plant response rating, Morningglory [18, 26]: 0
- Plant response rating, Cocklebur [19, 26]: 0
- Plant response rating, Cocklebur [19, 24]: 0
- Plant response rating, Rice [20, 26]: 0
- Plant response rating, Crabgrass [21, 24]: 100

Compound: CC(C)(C)c1ccn(C2CCN(c3cccc(SC(F)(F)F)c3)C2=O)n1 (stereo not drawn) [Compound 93]
- Plant response rating, Pigweed [1, 25]: 20
- Plant response rating, Pigweed [1, 27]: 0
- Plant response rating (0 to 100), Pigweed ([1]; preemergence, Rate 500 g/ha): 80
- Plant response rating, Pigweed [1, 28]: 20
- Plant response rating, Goosegrass [2, 25]: 100
- Plant response rating, Goosegrass [2, 27]: 20
- Plant response rating (0 to 100), Goosegrass ([2]; preemergence, Rate 500 g/ha): 100
- Plant response rating, Goosegrass [2, 28]: 100
- Plant response rating, Cupgrass, Woolly [3, 25]: 20
- Plant response rating, Cupgrass, Woolly [3, 27]: 0
- Plant response rating (0 to 100), Cupgrass, Woolly ([3]; preemergence, Rate 500 g/ha): 80
- Plant response rating, Cupgrass, Woolly [3, 28]: 70
- Plant response rating, Ragweed, Common [4, 25]: 0
- Plant response rating, Ragweed, Common [4, 27]: 0
- Plant response rating (0 to 100), Ragweed, Common ([4]; preemergence, Rate 500 g/ha): 0
- Plant response rating, Ragweed, Common [4, 28]: 0
- Plant response rating, Lambsquarters [5, 25]: 70
- Plant response rating, Lambsquarters [5, 27]: 0
- Plant response rating (0 to 100), Lambsquarters ([5]; preemergence, Rate 500 g/ha): 100
- Plant response rating, Lambsquarters [5, 28]: 90
- Plant response rating, Surinam grass [6, 25]: 10
- Plant response rating, Surinam grass [6, 27]: 0
- Plant response rating (0 to 100), Surinam grass ([6]; preemergence, Rate 500 g/ha): 70
- Plant response rating, Surinam grass [6, 28]: 30
- Plant response rating, Cocklebur [7, 25]: 0
- Plant response rating, Cocklebur [7, 27]: 0
- Plant response rating (0 to 100), Cocklebur ([7]; preemergence, Rate 500 g/ha): 20
- Plant response rating, Cocklebur [7, 28]: 0
- Plant response rating, Nightshade ([8]; Rate 62 g/ha, scale 0 to 100): 0
- Plant response rating, Nightshade ([8]; Rate 125 g/ha; scale 0 to 100, 0 no effect, 100 complete control): 0
- Plant response rating, Nightshade ([8]; Rate 250 g/ha, scale 0 to 100, 0 no effect, 100 complete control): 0
- Plant response rating, Crabgrass [9, 25]: 100
- Plant response rating, Crabgrass [9, 27]: 80
- Plant response rating (0 to 100), Crabgrass ([9]; preemergence, Rate 500 g/ha): 100
- Plant response rating, Crabgrass [9, 28]: 100
- Plant response rating, Soybean [10, 25]: 0
- Plant response rating, Soybean [10, 27]: 0
- Plant response rating (0 to 100), Soybean ([10]; preemergence, Rate 500 g/ha): 20
- Plant response rating, Soybean [10, 28]: 0
- Plant response rating, Velvetleaf [11, 26]: 0
- Plant response rating, Velvetleaf [11, 29]: 0
- Plant response rating, Pigweed [12, 26]: 80
- Plant response rating, Pigweed [12, 29]: 0
- Plant response rating, Corn [13, 26]: 0
- Plant response rating, Corn [13, 29]: 0
- Plant response rating, Barnyardgrass [14, 26]: 100
- Plant response rating, Barnyardgrass [14, 29]: 0
- Plant response rating, Lambsquarters [15, 26]: 100
- Plant response rating, Lambsquarters [15, 29]: 60
- Plant response rating, Surinam grass [16, 26]: 70
- Plant response rating, Surinam grass [16, 29]: 0
- Plant response rating, Foxtail, Giant [17, 26]: 90
- Plant response rating, Foxtail, Giant [17, 29]: 20
- Plant response rating, Morningglory [18, 26]: 0
- Plant response rating, Morningglory [18, 29]: 0
- Plant response rating, Cocklebur [19, 26]: 0
- Plant response rating, Cocklebur [19, 29]: 0
- Plant response rating, Rice [20, 26]: 0
- Plant response rating, Rice [20, 29]: 0
- Plant response rating, Crabgrass [21, 26]: 100
- Plant response rating, Crabgrass [21, 29]: 20
